From PubChem BioAssay AID1259407 (Chemical Carcinogenesis Research Information System (CCRIS), 2018)
The source made the active and inactive calls. No rule for the calls is given here.

Tested on: CCRIS mutagenicity, Ames/micronucleus/aberration tests
Assay: CCRIS mutagenicity studies
[1] = Test System: AMES SALMONELLA TYPHIMURIUM, Strain/Indicator: TA98, Metabolic Activation: NONE, Method: STANDARD PLATE
[2] = Test System: AMES SALMONELLA TYPHIMURIUM, Strain/Indicator: TA97, Metabolic Activation: NONE, Method: STANDARD PLATE
[3] = Test System: AMES SALMONELLA TYPHIMURIUM, Strain/Indicator: TA98, Metabolic Activation: NONE, Method: PREINCUBATION
[4] = Test System: AMES SALMONELLA TYPHIMURIUM, Strain/Indicator: TA100, Metabolic Activation: NONE, Method: PREINCUBATION
[5] = Test System: AMES SALMONELLA TYPHIMURIUM, Strain/Indicator: TA100, Metabolic Activation: NONE, Method: STANDARD PLATE
[6] = Test System: AMES SALMONELLA TYPHIMURIUM, Strain/Indicator: TA1535, Metabolic Activation: NONE, Method: PREINCUBATION
[7] = Test System: AMES SALMONELLA TYPHIMURIUM, Strain/Indicator: TA1537, Metabolic Activation: NONE, Method: PREINCUBATION
[8] = Test System: AMES SALMONELLA TYPHIMURIUM, Strain/Indicator: TA1538, Metabolic Activation: NONE, Method: PREINCUBATION
[9] = Test System: AMES SALMONELLA TYPHIMURIUM, Strain/Indicator: TA98, Metabolic Activation: RAT, LIVER, S-9, AROCLOR 1254, Method: STANDARD PLATE
[10] = Test System: AMES SALMONELLA TYPHIMURIUM, Strain/Indicator: TA100, Metabolic Activation: RAT, LIVER, S-9, AROCLOR 1254, Method: STANDARD PLATE

Measured: mutagenic call

CCc1ccc2c3c(cccc13)-c1ccccc1-2
inactive: [1] inactive; negative | Test System: AMES SALMONELLA TYPHIMURIUM, Strain/Indicator: TA98, Metabolic Activation: RAT, LIVER, S-9, AROCLOR 1254 (4%), Method: STANDARD PLATE inactive; negative

NCCNC(=O)c1ccc(Cl)cn1
inactive: Test System: AMES SALMONELLA TYPHIMURIUM, Strain/Indicator: TA97, Metabolic Activation: NONE, Method: PREINCUBATION inactive; negative | [2] inactive; negative | Test System: AMES SALMONELLA TYPHIMURIUM, Strain/Indicator: TA97, Metabolic Activation: RAT, LIVER, S-9, PHENOBARBITAL AND BETA-NAPHTHOFLAVONE, Method: PREINCUBATION inactive; negative | Test System: AMES SALMONELLA TYPHIMURIUM, Strain/Indicator: TA97, Metabolic Activation: RAT, LIVER, S-9, PHENOBARBITAL AND BETA-NAPHTHOFLAVONE, Method: STANDARD PLATE inactive; negative | [3] inactive; negative | [1] inactive; negative | Test System: AMES SALMONELLA TYPHIMURIUM, Strain/Indicator: TA98, Metabolic Activation: RAT, LIVER, S-9, PHENOBARBITAL AND BETA-NAPHTHOFLAVONE, Method: PREINCUBATION inactive; negative | Test System: AMES SALMONELLA TYPHIMURIUM, Strain/Indicator: TA98, Metabolic Activation: RAT, LIVER, S-9, PHENOBARBITAL AND BETA-NAPHTHOFLAVONE, Method: STANDARD PLATE inactive; negative | [4] inactive; negative | [5] inactive; negative | Test System: AMES SALMONELLA TYPHIMURIUM, Strain/Indicator: TA100, Metabolic Activation: RAT, LIVER, S-9, PHENOBARBITAL AND BETA-NAPHTHOFLAVONE, Method: PREINCUBATION inactive; negative | Test System: AMES SALMONELLA TYPHIMURIUM, Strain/Indicator: TA100, Metabolic Activation: RAT, LIVER, S-9, PHENOBARBITAL AND BETA-NAPHTHOFLAVONE, Method: STANDARD PLATE inactive; negative | Test System: AMES SALMONELLA TYPHIMURIUM, Strain/Indicator: TA102, Metabolic Activation: NONE, Method: PREINCUBATION inactive; negative | Test System: AMES SALMONELLA TYPHIMURIUM, Strain/Indicator: TA102, Metabolic Activation: NONE, Method: STANDARD PLATE inactive; negative | Test System: AMES SALMONELLA TYPHIMURIUM, Strain/Indicator: TA102, Metabolic Activation: RAT, LIVER, S-9, PHENOBARBITAL AND BETA-NAPHTHOFLAVONE, Method: PREINCUBATION inactive; negative | Test System: AMES SALMONELLA TYPHIMURIUM, Strain/Indicator: TA102, Metabolic Activation: RAT, LIVER, S-9, PHENOBARBITAL AND BETA-NAPHTHOFLAVONE, Method: STANDARD PLATE inactive; negative | [6] inactive; negative | Test System: AMES SALMONELLA TYPHIMURIUM, Strain/Indicator: TA1535, Metabolic Activation: NONE, Method: STANDARD PLATE inactive; negative | Test System: AMES SALMONELLA TYPHIMURIUM, Strain/Indicator: TA1535, Metabolic Activation: RAT, LIVER, S-9, PHENOBARBITAL AND BETA-NAPHTHOFLAVONE, Method: PREINCUBATION inactive; negative | Test System: AMES SALMONELLA TYPHIMURIUM, Strain/Indicator: TA1535, Metabolic Activation: RAT, LIVER, S-9, PHENOBARBITAL AND BETA-NAPHTHOFLAVONE, Method: STANDARD PLATE inactive; negative | [7] inactive; negative | Test System: AMES SALMONELLA TYPHIMURIUM, Strain/Indicator: TA1537, Metabolic Activation: NONE, Method: STANDARD PLATE inactive; negative | Test System: AMES SALMONELLA TYPHIMURIUM, Strain/Indicator: TA1537, Metabolic Activation: RAT, LIVER, S-9, PHENOBARBITAL AND BETA-NAPHTHOFLAVONE, Method: PREINCUBATION inactive; negative | Test System: AMES SALMONELLA TYPHIMURIUM, Strain/Indicator: TA1537, Metabolic Activation: RAT, LIVER, S-9, PHENOBARBITAL AND BETA-NAPHTHOFLAVONE, Method: STANDARD PLATE inactive; negative | [8] inactive; negative | Test System: AMES SALMONELLA TYPHIMURIUM, Strain/Indicator: TA1538, Metabolic Activation: NONE, Method: STANDARD PLATE inactive; negative | Test System: AMES SALMONELLA TYPHIMURIUM, Strain/Indicator: TA1538, Metabolic Activation: RAT, LIVER, S-9, PHENOBARBITAL AND BETA-NAPHTHOFLAVONE, Method: PREINCUBATION inactive; negative | Test System: AMES SALMONELLA TYPHIMURIUM, Strain/Indicator: TA1538, Metabolic Activation: RAT, LIVER, S-9, PHENOBARBITAL AND BETA-NAPHTHOFLAVONE, Method: STANDARD PLATE inactive; negative | Test System: CHINESE HAMSTER V-79, Strain/Indicator: V-79 (HPRT)/6-THIOGUANINE, Metabolic Activation: NONE inactive; negative | Test System: CHINESE HAMSTER V-79, Strain/Indicator: V-79 (HPRT)/6-THIOGUANINE, Metabolic Activation: RAT, LIVER, S-9, AROCLOR 1254 inactive; negative | Test System: UDS RAT HEPATOCYTES, Strain/Indicator: THY INCORP, Metabolic Activation: NONE, Method: AUTORADIOGRAPHY inactive; negative

ClCc1cc2cccc3ccc4cc5ccccc5c1c4c32
active: [1] active; positive | [5] active; positive

CC1=C(/C=C/C(C)=C/C=C/C(C)=C/C=C/C=C(C)/C=C/C=C(\C)C=O)C(C)(C)CCC1
active: End Point: In vitro chromosomal aberrations, Test System: Primary rat (Fischer, female) hepatocytes, Metabolic Activation: None active; positive | End Point: In vitro micronucleus, Test System: Primary rat (Fischer, female) hepatocytes, Metabolic Activation: None active; positive
inactive: [1] inactive; negative | [9] inactive; negative | [5] inactive; negative | [10] inactive; negative

Cc1c2ccccc2cc2ccccc12
active: Test System: AMES SALMONELLA TYPHIMURIUM, Strain/Indicator: TA97, Metabolic Activation: RAT, LIVER, S-9, PCB, Method: STANDARD PLATE active; positive | [9] active; positive | Test System: AMES SALMONELLA TYPHIMURIUM, Strain/Indicator: TA98, Metabolic Activation: RAT, LIVER, S-9, PCB, Method: STANDARD PLATE active; positive | Test System: AMES SALMONELLA TYPHIMURIUM, Strain/Indicator: TA100, Metabolic Activation: RAT, LIVER, S-9, PCB, Method: STANDARD PLATE active; positive
inactive: [2] inactive; negative | [1] inactive; negative | [5] inactive; negative | [10] inactive; negative

C=CC(=O)OCC (tested in a mixture with another compound)
inactive: Test System: AMES SALMONELLA TYPHIMURIUM, Strain/Indicator: TA1538, Metabolic Activation: RAT, LIVER, S-9, AROCLOR 1254, Method: STANDARD PLATE inactive; negative
active: [10] active; positive | Test System: AMES SALMONELLA TYPHIMURIUM, Strain/Indicator: TA1535, Metabolic Activation: RAT, LIVER, S-9, AROCLOR 1254, Method: STANDARD PLATE active; positive

Oc1cc(O)c2ccccc2c1
active: [3] active; positive | [4] active; positive | Test System: AMES SALMONELLA TYPHIMURIUM, Strain/Indicator: TA104, Metabolic Activation: NONE, Method: PREINCUBATION active; positive | Test System: AMES SALMONELLA TYPHIMURIUM, Strain/Indicator: TA2637, Metabolic Activation: NONE, Method: PREINCUBATION active; positive
inactive: [6] inactive; negative | [7] inactive; negative | [8] inactive; negative | Test System: AMES SALMONELLA TYPHIMURIUM, Strain/Indicator: TA2659, Metabolic Activation: NONE, Method: PREINCUBATION inactive; negative
